According to PubChem BioAssay (NCI):
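How tested: cells in 96-well plates exposed to compound for 48 hours at five concentrations. GI50: concentration for 50% inhibition of growth. TGI denotes the concentration required for complete inhibition of growth.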

Tests used:
Assay in all cases: inhibition of tumour cell growth, NCI panel, 48 h
SNB-75 CNS = test system: SNB-75 CNS
KM12 colon = test system: KM12 colon
HS 578T breast = test system: HS 578T breast
LOX IMVI melanoma = test system: LOX IMVI melanoma
SNB-19 CNS = test system: SNB-19 CNS
NCI-H23 lung = test system: NCI-H23 lung
MDA-MB-231 breast = test system: MDA-MB-231 breast
SK-OV-3 ovarian = test system: SK-OV-3 ovarian
SF-268 CNS = test system: SF-268 CNS
OVCAR-4 ovarian = test system: OVCAR-4 ovarian

Compound | GI50 (SNB-75 CNS) | TGI (SNB-75 CNS) | GI50 (KM12 colon) | TGI (KM12 colon) | GI50 (HS 578T breast) | TGI (HS 578T breast) | GI50 (LOX IMVI melanoma) | TGI (LOX IMVI melanoma) | GI50 (SNB-19 CNS) | TGI (SNB-19 CNS) | GI50 (NCI-H23 lung) | TGI (NCI-H23 lung) | GI50 (MDA-MB-231 breast) | TGI (MDA-MB-231 breast) | GI50 (SK-OV-3 ovarian) | TGI (SK-OV-3 ovarian) | GI50 (SF-268 CNS) | TGI (SF-268 CNS) | GI50 (OVCAR-4 ovarian) | TGI (OVCAR-4 ovarian)
COc1ccc2c(c1)/C(=N/OC(C)=O)c1c-2c(Nc2ccc(/C(C)=N/OC(C)=O)cc2)nc2ccccc12 | 25 µM | 75.9 µM | 43.5 µM | > 100 µM | 66 µM | > 100 µM | 29.1 µM | 63.5 µM | > 100 µM | > 100 µM | 35.5 µM | > 100 µM | > 100 µM | > 100 µM | 71.6 µM | > 100 µM | 37.7 µM | > 100 µM | 20.8 µM | 45.1 µM
C=C(C)[C@@H]1CC[C@@H]2C(=CC[C@]3(C)C([C@H](C)CC/C=C(/C)C(=O)O)CC[C@@]23C)[C@@]1(C)CCC(=O)O (stereo not given in full) |  | > 100 µM |  | 48.7 µM |  | > 100 µM |  | 37.8 µM |  | > 100 µM |  | 57.2 µM |  | 60.2 µM |  | > 100 µM |  | > 100 µM |  | > 100 µM
COc1ccc(OC)c(/C=C/C(=O)c2ccc(SC)cc2)c1 | 8.88 µM | > 100 µM | 4.9 µM | 27.7 µM | 3.81 µM | > 100 µM | 12.3 µM | 28 µM | 9.68 µM | 46.5 µM | 2.77 µM | 7.6 µM | 54 µM | > 100 µM | 8.07 µM | > 100 µM | 2.58 µM | 7.46 µM | 61.1 µM | > 100 µM
Cn1ccnc1C(=O)/C=C/c1ccc(CC(=O)Nc2cc(F)c(F)c(F)c2)cc1 | 0.867 µM | > 25 µM | 1.58 µM | 5.51 µM | 10.8 µM | > 25 µM | 1.03 µM | 3.79 µM | 2.87 µM | 6.59 µM | 2.08 µM | 9.53 µM | 4.04 µM | > 25 µM | 5.59 µM | > 25 µM | 1.78 µM | 9.57 µM | 2.25 µM | > 25 µM
O=C(Nc1ccc(I)cc1F)c1cc(F)ccc1O | 0.225 µM | 2.31 µM | 2.21 µM | 6.23 µM | 0.44 µM | 5.29 µM | 0.418 µM | 3.91 µM | 0.406 µM | > 100 µM | 0.379 µM | 4.04 µM | 0.513 µM | 4.69 µM | 0.465 µM | 2.59 µM | 0.513 µM | > 31.1 µM | 0.396 µM | 17.2 µM
O=C(O)CNCc1c2ccccc2nc2ccccc12 |  | > 79.4 µM |  | > 100 µM |  | > 100 µM |  | > 100 µM |  | > 100 µM |  | > 100 µM |  | > 100 µM |  | > 100 µM |  | > 100 µM |  | > 89.8 µM
CCc1cc(Nc2nccc(-c3c(-c4ccc(OC)c(C(=O)Nc5c(F)cccc5F)c4)nc4ccccn34)n2)c(OC)cc1N1CCC(N2CCN(S(C)(=O)=O)CC2)CC1 | > 50.1 µM | > 100 µM | > 100 µM | > 100 µM | > 100 µM | > 100 µM | > 100 µM | > 100 µM | > 56.6 µM | > 100 µM | > 100 µM | > 100 µM | 44.3 µM | > 100 µM | > 100 µM | > 100 µM | > 100 µM | > 100 µM | > 100 µM | > 100 µM
CC[C@@]1(O)C(=O)N(CCN(C)C)Cc2c1cc1n(c2=O)Cc2cc3ccccc3nc2-1 | 17.4 µM | > 100 µM | 12.5 µM | > 54.1 µM | > 100 µM | > 100 µM | 6.19 µM | > 50.7 µM | > 24.9 µM | > 100 µM | 8.35 µM | > 100 µM | > 100 µM | > 100 µM | > 100 µM | > 100 µM | 3.59 µM | > 100 µM | 58.1 µM | > 100 µM
Cc1cncc2cccc(S(=O)(=O)N3CCCNC[C@@H]3C)c12 | 0.214 µM | 6.52 µM | 15.2 µM | > 100 µM | 1.51 µM | > 100 µM | 7.94 µM | 87 µM | 46.2 µM | > 100 µM | 31.5 µM | > 100 µM | 14.1 µM | 74.2 µM | 24 µM | > 100 µM | 4.91 µM | > 81.8 µM | > 100 µM | > 100 µM
COc1ccc(C2C3=C(COC3=O)N(CCO)c3cc4c(cc32)CCC4)cc1OC (stereo not given) | 0.253 µM | 2.48 µM | 0.297 µM | > 50 µM | 0.454 µM | > 15 µM | 1.53 µM | > 50 µM | 2.16 µM | > 50 µM | 1.36 µM | > 50 µM | 2.52 µM | > 50 µM | 0.746 µM | > 50 µM | 1.78 µM | > 50 µM | 0.901 µM | > 50 µM
CCN(Cc1cccc(C)c1)c1ccc(CO)c(Cl)c1 | 13.1 µM | 37.5 µM | 13.9 µM | 27.8 µM | 15.2 µM | 37.7 µM | 13.2 µM | 26.6 µM | 15.8 µM | 41 µM | 10.1 µM | 25.5 µM | 14.1 µM | 30.8 µM | 11.7 µM | 29.5 µM | 16.2 µM | 31.1 µM | 0.618 µM | 8.22 µM
CCN(CC)CCn1nc2c3c(cccc3c1=O)-c1ccccc1-2 | 3.27 µM | 11.1 µM | 2.84 µM | > 50 µM | 11.2 µM | > 50 µM | 1.31 µM | 4.74 µM | 2.63 µM | > 50 µM | 1.82 µM | 8.98 µM | 4.92 µM | 19.4 µM | 2.13 µM | > 50 µM | 2.87 µM | 21.3 µM | 3.33 µM | 26 µM
C/C(=C\COc1ccc2ccc(=O)oc2c1)CCC(=O)C(C)(C)O |  | > 100 µM |  | 41 µM |  | 78.2 µM |  | 32.8 µM |  | > 100 µM |  | > 100 µM |  | > 100 µM |  | 99.4 µM |  | > 100 µM |  | > 100 µM
CN1CCN(Cc2ccc(NC(=O)c3cncc(C#Cc4cncc5[nH]ncc45)c3)cc2C(F)(F)F)CC1 | 0.793 µM | 2.51 µM | 0.0209 µM | 2.65 µM | 0.523 µM | 2.45 µM | 0.171 µM | 0.689 µM | 3.81 µM | 9.93 µM | 0.488 µM | 4.29 µM | 0.23 µM | 1.04 µM | 1.4 µM | 4.89 µM | 0.899 µM | 3.96 µM | 0.171 µM | 5.34 µM
O=[N+]([O-])C1(CO)COC2(OC1)c1ccccc1-c1ccccc12 |  | > 100 µM |  | > 100 µM |  | > 100 µM |  | 67.7 µM |  | > 100 µM |  | > 100 µM |  | > 100 µM |  | > 100 µM |  | > 93.2 µM |  | > 100 µM
N#CCCCCCn1c2ccccc2c2c3c(c4c5ccccc5[nH]c4c21)C(=O)N(O)C3=O | 0.684 µM | 9.55 µM | 1.37 µM | 3.39 µM | 4.77 µM | > 100 µM | 0.24 µM | 1.44 µM | 0.959 µM | > 100 µM | 1.55 µM | 5.54 µM | 1.78 µM | 5.32 µM | 2.55 µM | 19.4 µM | 0.957 µM | 48.1 µM | 1.9 µM | 13 µM
O=C1c2ccccc2-c2c1c1ccccc1c(=O)n2CCCNCCO | 1.43 µM | 5.68 µM | 0.485 µM | 4 µM | 0.589 µM | 5.04 µM | 0.206 µM | 2.79 µM | 0.813 µM | 6.73 µM | 0.818 µM | 4.97 µM | 1.5 µM | 6.55 µM | 2.1 µM | 14.4 µM | 0.796 µM | 8.85 µM | 1.24 µM | 5.95 µM
Cn1cc(C2=C(c3cccc(Cl)c3)C(=O)NC2=O)c2ccccc21 | 6.65 µM | > 25 µM | > 25 µM | > 25 µM | 7.28 µM | > 25 µM | > 25 µM | > 25 µM | > 25 µM | > 25 µM | > 25 µM | > 25 µM | > 12.6 µM | > 25 µM | > 25 µM | > 25 µM | > 25 µM | > 25 µM | > 22.6 µM | > 25 µM
